The values below come from ChEMBL document CHEMBL5375945, “Structure-Guided Design of a Domain-Selective Bromodomain and Extra Terminal N-Terminal Bromodomain Chemical Probe” (J Med Chem, 2023).

By IC50 is commonly meant the concentration at which inhibition is half-maximal.

The target in test [1] is T1, Bromodomain-containing protein 4 (Homo sapiens, UniProt O60885). Nature of the test: Inhibition of BRD4 BD1 (unknown origin) by TR-FRET assay.
Test [2] concerns the target T1, Bromodomain-containing protein 4. Nature of the test: Inhibition of BRD4 BD2 (unknown origin) by TR-FRET assay. (In general: In TR-FRET formats the signal depends on donor and acceptor labels being close together.)

Take `CC(=O)N1CCC[C@H](Cn2c(-c3cc(C)c(=O)n(C)c3)nc3ccccc32)C1`: the IC50 in test [1] was 31.6 nM; in test [2], 501 nM.

Regarding `CC(=O)N1CCC[C@@H](Cn2c(-c3cc(C)c(=O)n(C)c3)nc3ccccc32)C1`, in test [2], the half-inhibitory concentration (IC50) was 631 nM.

On to `CC(=O)N1CCC[C@@H](Cn2c(-c3cc(C)c(=O)n(C)c3)nc3cc(Br)ccc32)C1`, for which the IC50 in test [1] is 10 nM; in test [2] it was 501 nM.
